In patent US8378117B2 (priority 2005, dated 2013):
Read-outs that look alike come from different tables or passages of the source.

Legend:
CB1 receptor [1] = target: T1, CB1 receptor (Homo sapiens, UniProt P21554); assay: cell-based; settings: SK-N-MC cells
T1 construct: expressed in transfected cells
Description: The CB1 and CB2 receptors are G-protein coupled receptors (GPCR), which influence cell function via the Gi-protein. These receptors modulate the activity of intracellular adenylate cyclase, which in turn produces the intracellular signal messenger cyclic-AMP (cAMP).
At baseline, or during non-ligand bound conditions, these receptors are constitutively active and tonically suppress adenylate cyclase activity. The binding of an agonist causes further receptor activation and produces additional suppression of adenylate cyclase activity. The binding of an inverse agonist inhibits the constitutive activity of the receptors and results in an increase in adenylate cyclase activity.
By monitoring intracellular adenylate cyclase activity, the ability of compounds to act as agonists or inverse agonists can be determined.
Test compounds were evaluated in SK-N-MC cells which, using standard transfection procedures, were stably transfected with human cDNA for pcDNA3-CRE β-gal and pcDNA3 CB1 receptor (human) or pcDNA3 CB2 receptor (human). By expressing CRE β-gal, the cells produced β-galactosidase in response to CRE promoter activation by cAMP. Cells expressing CRE β-gal and either the human CB1 or CB2 receptor will produce less β-galactosidase when treated with a CB1/CB2 agonist and will produce more β-galactosidase when treated with a CB1/CB2 inverse agonist.
The cells were grown in 96-well plates under standard cell culture conditions at 37° C. in a 5% CO2 atmosphere and culture media (wherein the media was supplemented with 2 mM L-glutamine, […] sodium pyruvate, 10% FBS (fetal bovine serum) and antibiotics).
The change in forskolin induced β-galactosidase activity was determined by setting a vehicle treated cell's activity value at 100% and expressing the β-galactosidase activity measured in a corresponding compound treated cell as a percent of the vehicle treated cell activity.
The EC50 value for functional activity for compounds tested was calculated by linear regression and was obtained from studies in which varying compound concentrations were used.
Where an EC50 value was not obtained for a test compound, the value shown (in %) represents change in functional activity and was obtained from a study in which one compound concentration was used.

CB2 receptor = target: T2, CB2 receptor (Homo sapiens, UniProt P34972); assay: Binding assay for CB2 agonists or inverse agonists (SK-N-MC membranes, [3H]-CP-55,940); settings: for inhibition at 0.2 µM: read-out: CB2 receptor binding percent inhibition, test concentration 0.2 μM (footnote 2); for CB2 receptor binding percent inhibition: test concentration not stated
T2 construct: expressed in transfected cells
In short: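 IC50 came from percent-inhibition data over several compound concentrations, fitted by linear regression. Binding used semi-purified membranes of human CB2-transfected SK-N-MC cells, 90 min at 30 °C, pH 7.5 Tris-HCl with MgCl2, EDTA and BSA, then filtration and scintillation counting.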

CB1 receptor [2] = target: T1, CB1 receptor; assay: Binding assay for CB1 agonists or inverse agonists (SK-N-MC membranes, [3H]-CP-55,940); settings: for inhibition at 0.2 µM: read-out: CB1 receptor binding percent inhibition, test concentration 0.2 μM (footnote 2); for inhibition at 1 µM: read-out: CB1 receptor binding percent inhibition, test concentration 1 μM (footnote 1)
In short: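 Radioligand displacement: [3H]-CP-55,940 at […], 90 min at 30° C, pH 7.5 Tris buffer with 0.5 mg/mL fatty-acid-free BSA, using semi-purified membranes of human-CB1-transfected SK-N-MC cells. Bound counts collected on GF/C filters, 10 uM WIN 55,212 for non-specific; IC50 from percent inhibition over several concentrations.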

[3] = CB1 Receptor Functional Inverse Agonist EC50, forskolin induced β-galactosidase activity
[4] = Cannabinoid CB1 Receptor Binding IC50, calculated by linear regression from percent inhibition at various test concentrations
[5] = forskolin induced β-galactosidase activity, read-out: CB1 Receptor Functional Inverse Agonist EC50

T1 sequence (P21554 whole entry): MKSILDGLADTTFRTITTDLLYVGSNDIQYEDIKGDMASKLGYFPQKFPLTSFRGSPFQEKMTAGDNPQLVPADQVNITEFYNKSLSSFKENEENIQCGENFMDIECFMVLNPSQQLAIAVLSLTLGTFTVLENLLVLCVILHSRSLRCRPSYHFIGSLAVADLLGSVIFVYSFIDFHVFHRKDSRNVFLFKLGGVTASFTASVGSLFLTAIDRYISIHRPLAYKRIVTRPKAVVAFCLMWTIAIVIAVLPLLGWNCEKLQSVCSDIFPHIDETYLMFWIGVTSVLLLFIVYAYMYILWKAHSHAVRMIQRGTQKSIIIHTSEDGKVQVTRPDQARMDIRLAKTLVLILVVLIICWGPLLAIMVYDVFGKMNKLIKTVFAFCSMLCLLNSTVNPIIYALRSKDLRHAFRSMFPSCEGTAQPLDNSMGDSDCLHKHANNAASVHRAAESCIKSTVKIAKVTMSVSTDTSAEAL
T2 sequence (P34972 whole entry): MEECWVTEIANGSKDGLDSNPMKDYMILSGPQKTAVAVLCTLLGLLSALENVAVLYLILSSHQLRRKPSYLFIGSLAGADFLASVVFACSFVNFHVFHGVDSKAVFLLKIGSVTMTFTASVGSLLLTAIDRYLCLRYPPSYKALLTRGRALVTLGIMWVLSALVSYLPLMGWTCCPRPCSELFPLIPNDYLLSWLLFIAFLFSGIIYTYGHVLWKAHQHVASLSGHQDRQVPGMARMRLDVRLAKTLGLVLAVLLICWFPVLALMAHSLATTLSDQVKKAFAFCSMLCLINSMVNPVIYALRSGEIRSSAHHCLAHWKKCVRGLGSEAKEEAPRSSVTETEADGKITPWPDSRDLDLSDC

Structure (SMILES) | EC50 (CB1 receptor [1]; [3]) [nM] | inhibition at 0.2 µM (CB2 receptor) [%] | IC50 (CB1 receptor [2]; [4]) [nM] | inhibition at 0.2 µM (CB1 receptor [2]) [%] | CB2 receptor binding percent inhibition (CB2 receptor) [%] | inhibition at 1 µM (CB1 receptor [2]) [%] | further results
COc1ccc(/C=C2\CCCCc3c(C(=O)NN4CC5CCCC5C4)nn(-c4ccc(Cl)cc4Cl)c32)cc1 (stereo not drawn) [Cpd 226, (8E)-1-(2,4-dichloro-phenyl)-8-(4-methoxy-benzylidene)-1,4,5,6,7,8-hexahydro-cycloheptapyrazole-3-carboxylic acid (hexahydro-cyclopenta[c]pyrrol-2-yl)-amide] | 3 | 48 | 40 | 72 |  |  | 
O=C(N[C@@H]1c2ccccc2C[C@@H]1O)c1nn(C2CCCCC2)c2c1CCCCC2Cc1cccc(F)c1 (single isomer, unassigned) [Cpd 114, (8R*)-1-cyclohexyl-8-(3-fluoro-benzyl)-1,4,5,6,7,8-hexahydro-cycloheptapyrazole-3-carboxylic acid [(1R,2S)-2-hydroxy-indan-1-yl]-amide] | 40 |  |  |  | 47 |  | CB1 receptor binding percent inhibition (CB1 receptor [2]; test concentration 1 μM (footnote 1), 1 µM): ^(1)17%
CCOC(=O)[C@H]1C2C=CC(C2)[C@H]1NC(=O)c1nn(-c2ccc(F)cc2F)c2c1CCCCC2Cc1cccc(F)c1 (stereo partly drawn) [Cpd 99, (2S,3R)-3-{[1-(2,4-difluoro-phenyl)-8-(3-fluoro-benzyl)-1,4,5,6,7,8-hexahydro-cycloheptapyrazole-3-carbonyl]-amino}-bicyclo[2.2.1]hept-5-ene-2-carboxylic acid ethyl ester] |  |  |  |  | 24 | 17 | EC50 (CB1 receptor [1]; [5]): 200 nM
O=C(NN1CCCCC1)c1nn(-c2ccc(Cl)cc2Cl)c2c1CCCCC2Cc1cccc(F)c1 (stereo not drawn) [Cpd 84, 1-(2,4-dichloro-phenyl)-8-(3-fluoro-benzyl)-1,4,5,6,7,8-hexahydro-cycloheptapyrazole-3-carboxylic acid piperidin-1-ylamide] | 100 |  | 700 |  | 11 |  | CB1 receptor binding average percent inhibition (CB1 receptor [2]; value shown is an average percent inhibition (footnote 5), concentration not given): 67%
C[C@H](NC(=O)c1nn(-c2ccc(Cl)cc2Cl)c2c1CCCC/C2=C\c1ccc(F)cc1)C1CCCCC1 [Cpd 148, (8E)-1-(2,4-dichloro-phenyl)-8-(4-fluoro-benzylidene)-1,4,5,6,7,8-hexahydro-cycloheptapyrazole-3-carboxylic acid [(1S)-1-cyclohexyl-ethyl]-amide] | 200 | 39 | 80 | 69 |  |  | 
Cn1nc(/C=C/S(=O)(=O)NN2CCCCC2)c2c1C(Cc1cccc(F)c1)CCCC2 (stereo not drawn) [Cpd 124, (2E)-2-[8-(3-fluoro-benzyl)-1-methyl-1,4,5,6,7,8-hexahydro-cycloheptapyrazol-3-yl]-ethenesulfonic acid piperidin-1-ylamide] |  |  |  |  | 47 | 14 | EC50 (CB1 receptor [1]; [5]): 3400 nM
C[C@@H](NC(=O)c1nn(-c2ccccc2Cl)c2c1CCCC/C2=C\c1ccc(Cl)cc1)C1CCCCC1 [Cpd 189, (8E)-8-(4-chloro-benzylidene)-1-(2-chloro-phenyl)-1,4,5,6,7,8-hexahydro-cycloheptapyrazole-3-carboxylic acid [(1R)-1-cyclohexyl-ethyl]-amide] | 10 | 17 | 50 | 78 |  |  | 
O=C(NC1CCC1)c1nn(-c2ccc(Cl)cc2Cl)c2c1CCCCC2Cc1cccc(F)c1 (stereo not drawn) [Cpd 41, 1-(2,4-dichloro-phenyl)-8-(3-fluoro-benzyl)-1,4,5,6,7,8-hexahydro-cycloheptapyrazole-3-carboxylic acid cyclobutylamide] | 100 |  | 500 |  | 46 | 68 | 
CCOC(=O)[C@@H]1C2CCC(C2)[C@@H]1NC(=O)c1nn(-c2ccc(F)cc2F)c2c1CCCCC2Cc1cccc(F)c1 (stereo partly drawn) [Cpd 111, (2R,3S)-3-{[1-(2,4-difluoro-phenyl)-8-(3-fluoro-benzyl)-1,4,5,6,7,8-hexahydro-cycloheptapyrazole-3-carbonyl]-amino}-bicyclo[2.2.1]heptane-2-carboxylic acid ethyl ester] | 90 |  |  |  | 65 | 62 | inhibition at 0.5 µM (CB1 receptor [2]; read-out: CB1 receptor binding percent inhibition, test concentration 0.5 μM (footnote 10)): 45%; CB1 receptor binding percent inhibition (CB1 receptor [2]; test concentration not stated): 54%
COc1ccc(/C=C2\CCCCc3c(C(=O)N[C@H](C)c4ccccc4)nn(-c4ccc(Cl)cc4Cl)c32)cc1 [Cpd 212, (8E)-1-(2,4-dichloro-phenyl)-8-(4-methoxy-benzylidene)-1,4,5,6,7,8-hexahydro-cycloheptapyrazole-3-carboxylic acid [(1R)-1-phenyl-ethyl]-amide] | 20 | 42 | 6 | 94 |  |  | 
CC12CCC(C1)C(C)(C)[C@H]2NC(=O)c1nn(C2CCCCC2)c2c1CCCCC2Cc1ccc(F)cc1 (stereo partly drawn) [Cpd 58, 1-cyclohexyl-8-(4-fluoro-benzyl)-1,4,5,6,7,8-hexahydro-cycloheptapyrazole-3-carboxylic acid [(2S)-1,3,3-trimethyl-bicyclo[2.2.1]hept-2-yl]-amide] |  |  |  |  | 74 | 75 | EC50 (CB1 receptor [1]; forskolin induced β-galactosidase activity, read-out: CB1 Receptor Functional Agonist EC50): 1400 nM; inhibition at 0.015 µM (CB2 receptor; test concentration 0.015 μM (footnote 7), read-out: CB2 receptor binding percent inhibition): 65%; inhibition at 1 µM (CB2 receptor; test concentration 1 μM (footnote 1), read-out: CB2 receptor binding percent inhibition): 98%; IC50 (CB1 receptor [2]; calculated by linear regression from percent inhibition at various test concentrations, read-out: Cannabinoid CB1 Receptor Binding IC50): 200 nM
C[C@@H](NC(=O)c1nn(-c2ccc(S(N)(=O)=O)cc2)c2c1CCCC/C2=C\c1ccc(Cl)cc1)c1ccccc1 [Cpd 184, (8E)-8-(4-chloro-benzylidene)-1-(4-sulfamoyl-phenyl)-1,4,5,6,7,8-hexahydro-cycloheptapyrazole-3-carboxylic acid [(1R)-1-phenyl-ethyl]-amide] | 3 | 27 | 50 | 78 |  |  | 
NS(=O)(=O)c1ccc(CNC(=O)c2nn(-c3ccc(Cl)cc3Cl)c3c2CCCC/C3=C\c2ccc(Cl)cc2)cc1 [Cpd 135, (8E)-8-(4-chloro-benzylidene)-1-(2,4-dichloro-phenyl)-1,4,5,6,7,8-hexahydro-cycloheptapyrazole-3-carboxylic acid 4-sulfamoyl-benzylamide] | < 30 |  | 50 |  |  |  | inhibition at 0.25 µM (CB2 receptor; read-out: CB2 receptor binding percent inhibition, test concentration 0.25 μM (footnote 8)): 25%; inhibition at 0.25 µM (CB1 receptor [2]; read-out: CB1 receptor binding percent inhibition, test concentration 0.25 μM (footnote 8)): 65%
O=C(N[C@@H]1c2ccccc2C[C@@H]1O)c1nn(C2CCCCC2)c2c1CCCC[C@@H]2Cc1ccc(F)cc1 [Cpd 120, (8R)-1-cyclohexyl-8-(4-fluoro-benzyl)-1,4,5,6,7,8-hexahydro-cycloheptapyrazole-3-carboxylic acid [(1R,2S)-2-hydroxy-indan-1-yl]-amide] | 100 |  |  |  | 16 | 9 | 
O=C(NN1CCOCC1)c1nn(-c2ccc(Cl)cc2Cl)c2c1CCCCC2Cc1cccc(F)c1 (stereo not drawn) [Cpd 91, 1-(2,4-dichloro-phenyl)-8-(3-fluoro-benzyl)-1,4,5,6,7,8-hexahydro-cycloheptapyrazole-3-carboxylic acid morpholin-4-ylamide] | 70 |  | 300 |  | 0 | 68 | 
CC(NC(=O)c1nn(-c2ccc(Cl)cc2Cl)c2c1CCCC/C2=C\c1ccc(F)cc1)c1ccccn1 (stereo not drawn) [Cpd 224, (8E)-1-(2,4-dichloro-phenyl)-8-(4-fluoro-benzylidene)-1,4,5,6,7,8-hexahydro-cycloheptapyrazole-3-carboxylic acid (1-pyridin-2-yl-ethyl)-amide] | 4 | 4 | 8 | 87 |  |  | 
